# Laboratory results published in article PMC10390775, “CETP inhibitor evacetrapib enters mouse brain tissue” (Frontiers in Pharmacology, 2023).
# Assays:
# [1] = ref Krishna et al., 2017; cited from earlier work
# [2] = Dalcetrapib brain distribution in rats after i.v. dosing, compared with evacetrapib in mice; assay type: in vivo; conditions: rats 10 mg/kg BW dalcetrapib i.v. vs mice 40 mg/kg BW evacetrapib, ref Takubo et al., 2014
# [3] = set-up: method as in Takubo et al., 2014; conditions: rats; ref Takubo et al., 2014; cited from earlier work
Compound,Accumulation in adipose tissues [1],Dalcetrapib brain concentration relative to evacetrapib concentration ([2]; 0.5 h after injection),Dalcetrapib brain concentration relative to evacetrapib concentration ([2]; 24 h after injection),Crossing of the blood–brain barrier [3]
COc1cc(F)c(C(C)C)cc1-c1ccc(C(F)(F)F)cc1CN1C(=O)O[C@H](c2cc(C(F)(F)F)cc(C(F)(F)F)c2)[C@@H]1C [anacetrapib],accumulate in adipose tissues,–,–,–
CCC(CC)CC1(C(=O)Nc2ccccc2SC(=O)C(C)C)CCCCC1 [dalcetrapib],–,twofold lower,> 20 fold,capacity to cross the blood–brain barrier of rats
